Measured values published in patent US20130116251A1, “Novel HSP90 Inhibitor” (Nippon Kayaku Kabushiki Kaisha, priority 2005, published 2013).
Structures can show the parent of a compound that is named as a salt. Where two headings read alike, the source gives them in different places.

Legend:
[1] = target: rHSP90; test: HSP90 binding assay (BIACORE SPR; inhibition of binding between rHSP90 and fixed herbimycin A); settings: concentration inhibiting binding between rHSP90 (50 μg/mL) and fixed herbimycin A by 50%, BIACORE-X SPR; read-out: HSP90 inhibitory activity IC50
Excerpt: The HSP90 binding assay system is a system for detecting the change of mass as SPR signal caused by the binding between herbimycin A fixed on a sensor chip and rHSP90 by BIACORE-X, in which 17-(6-amino hexylamino)herbimycin A is fixed through a carboxyl group on the surface of the sensor chip (CM5, BIACORE) on which carboxymethyldextran has been introduced. The method was according to the protocol of BIACORE. In addition, 17-(6-aminohexylamino)herbimycin A was synthesizes as described below.
rHSP90 (Stressgen Biotechnologies Corp., Victoria, BC Canada) at 50 μg/mL was exposed for 10 seconds to the surface of the sensor chip on which herbimycin A was fixed and the SPR signal (numerical value of interaction) was detected.
After mixing rHSP90 protein (5×10^−7M (50 μg/mL)) with the triazole derivative of the present invention, the mixture was exposed for 10 seconds to the surface of the sensor chip on which herbimycin A was fixed, and the SPR signal was measured by BIACORE-X.
Next, using following formula (1), the inhibitory activity (binding inhibition rate (%)) of the compound of the present invention to the binding between rHSP90 and fixed herbimycin A was obtained.
binding inhibition rate(%)=((b−s)/b)×100 Formula (1)
wherein b is the SPR signal when the compound of the present invention is not added to the sample: s is the SPR signal when the compound of the present invention is added to the sample.

[2] = tested on: Human breast cancer cells (MCF7); test: Antiproliferative activity on MCF7 cells (methylene blue method); type: cell-based; settings: MCF7 cells, 72 hours treatment, 660 nm absorbance after methylene blue staining, read-out: Antiproliferative activity IC50
Experimental: Human breast cancer cells (MCF7) were treated with samples of various concentrations of known HSP90 inhibitors (that is, geldanamycin, herbimycin, radicicol and PU3) and the compounds of the present invention for 72 hours to confirm the effect of the triazole derivatives of the present invention on the cell growth. The cell ratio after the drug treatment was evaluated by measuring 660 nm absorbance by a microplate reader (BioRad) after staining the cells with the methylene blue method.
Cells were distributed to wells of 96 well plates at 2000 cells per well and treated with drugs 24 hours later. Further, the medium was removed 72 hours later and the cells were fixed by adding 50 μl of methanol and standing at room temperature for 2 minutes. After removing methanol, 100 μl of a staining solution was added and stained for 30 minutes. After washing 3 times with 200 μl of distilled water, 3% HCl solution was added, and the 660 nm absorbance of methylene blue was measured by a microplate reader (BioRad).
Next, the antiproliferative activity rate (%) was obtained by the formula (2) below.
Antiproliferative activity rate(%)=((B−A)/B)×100 Formula (2)
wherein B is 660 nm absorbance of the sample when the compound of the present invention is not added, and A is 660 nm absorbance of the sample when the compound of the present invention is added.
From the concentration of the triazole derivative of the present invention and the antiproliferative activity rate, the concentration was obtained using the above formula, at which the cell growth was suppressed by 50% by comparing with the control, and termed an IC50 value.
The antiproliferative activity rate (%) was obtained for SH-b04, SH-b05 and SH-b06 described above by a similar manner to that of the triazole derivatives of the present invention.

IC50 [1]	IC50 ([2]; Homo sapiens, MCF7, 72 h)	Compound	IC50 [2]
580 nM	550 nM	COc1ccc(-n2c(-c3cc(C(C)C)c(O)cc3O)nnc2S(=O)(=O)CC(=O)N(C)C)cc1 [SFN6-a08, 2-[5-(2,4-dihydroxy-5-isopropyl-phenyl)-4-(4-methoxy-phenyl)-4H-[1,2,4]triazol-3-sulfonyl]-N,N-dimethyl-acetamide]	–
1900 nM	> 20000 nM	COCCn1c(-c2cc(C(C)C)c(O)cc2O)nnc1S(C)(=O)=O [SFN-a32, 4-isopropyl-6-[5-methanesulfonyl-4-(2-methoxy-ethyl)-4H-[1,2,4]triazol-3-yl]-benzene-1,3-diol]	–
430 nM	3900 nM	COc1ccc(-n2c(-c3cc(C(C)C)c(O)cc3O)nnc2S(=O)(=O)Cc2ccc[n+]([O-])c2)cc1 [SFN5-a08, 4-isopropyl-6-[4-(4-methoxy-phenyl)-5-(1-oxy-pyridin-3-ylmethanesulfonyl)-4H-[1,2,4]triazol-3-yl]-benzene-1,3-diol]	–
560 nM	3000 nM	COc1ccc(-n2c(-c3cc(C(C)(C)C)c(O)cc3O)n[nH]c2=S)cc1 [SH-f08]	–
180 nM	600 nM	CC(C)c1cc(-c2n[nH]c(=O)n2CCN2CCOCC2)c(O)cc1O [OH-a26•HCl, 5-(2,4-dihydroxy-5-isopropyl-phenyl)-4-(2-morpholin-4-yl-ethyl)-2,4-dihydro-[1,2,4]triazol-3-one]	–
140 nM	–	CC(C)c1cc(-c2n[nH]c(=S)n2-c2ccc(N3CCOCC3)cc2)c(O)cc1O [SH-a01, 4-isopropyl-6-{5-mercapto-4-[4-(morpholin-4-yl)-phenyl]-4H-[1,2,4]triazol-3-yl}-benzene-1,3-diol]	14 nM
1400 nM	4100 nM	CC(C)c1cc(-c2nnc(S(=O)(=O)CCCN3CCCCC3)n2C(C)C)c(O)cc1O [SFN3-a21•TFA, 4-isopropyl-6-[4-isopropyl-5-(3-piperidine-1-yl-propane-1-sulfonyl)-4H-[1,2,4]triazol-3-yl]-benzene-1,3-diol]	–
690 nM	77000 nM	COc1ccc(OC)c(-n2c(S)nnc2-c2ccc(O)cc2O)c1 [SH-b06, reference compound]	–
120 nM	360 nM	COc1ccc(-n2c(-c3cc(C(C)C)c(O)cc3O)nnc2[S+](C)[O-])cc1 (stereo not drawn) [SFX-a08, 4-isopropyl-6-[5-methylsulfinyl-4-(4-methoxy-phenyl)-4H-[1,2,4]triazol-3-yl]-benzene-1,3-diol]	–
270 nM	450 nM	CC(C)Cn1c(-c2cc(C(C)C)c(O)cc2O)n[nH]c1=S [SH-a22, 5-(2,4-dihydroxy-5-isopropyl-phenyl)-4-isobutyl-2,4-dihydro-[1,2,4]triazol-3-thione]	–
170 nM	5700 nM	Oc1ccc(-c2nnc(S)n2-c2ccccc2)c(O)c1 [SH-b04, reference compound]	–
250 nM	40 nM	CC(C)c1cc(-c2n[nH]c(=S)n2-c2ccccc2)c(O)cc1O [SH-a15]	–
430 nM	98 nM	CC(C)c1cc(-c2nnc(S(=O)(=O)CCCN(C)C)n2-c2ccc(O)cc2)c(O)cc1O [SFN2-a11•TFA, 4-[5-(3-dimethylamino-propylsulfonyl)-4-(4-hydroxy-phenyl)-4H-[1,2,4]triazol-3-yl]-6-isopropyl-benzene-1,3-diol]	–
430 nM	7200 nM	CC(C)c1cc(-c2n[nH]c(=S)n2CCc2cccnc2)c(O)cc1O [SH-a28, 5-(2,4-dihydroxy-5-isopropylphenyl)-4-(2-pyridin-3-ylethyl)-2,4-dihydro-[1,2,4]triazol-4-thione]	–
140 nM	240 nM	CC(C)c1cc(-c2n[nH]c(=S)n2-c2cccnc2)c(O)cc1O [SH-a16]	–
470 nM	530 nM	CSc1nnc(-c2cc(C(C)C)c(O)cc2O)n1-c1ccc(CN2CCOCC2)cc1 [SMe-a02-TF, 4-isopropyl-6-{5-methylsulfanyl-4-[4-(morpholin-4-ylmethyl)-phenyl]-4H-[1,2,4]triazol-3-yl}-benzene-1,3-diol trifluoroacetate]	–
370 nM	3300 nM	CC(C)c1cc(-c2n[nH]c(=O)n2C(CO)CO)c(O)cc1O [OH-a33, 5-(2,4-dihydroxy-5-isopropyl-phenyl)-4-(2-hydroxy-1-hydroxymethyl-ethyl)-2,4-dihydro-[1,2,4]triazol-3-one]	–
1600 nM	> 20000 nM	CC(C)c1cc(-c2nnc(S(C)(=O)=O)n2CCCN2CCOCC2)c(O)cc1O [SFN-a27, 4-isopropyl-6-[5-methanesulfonyl-4-[3-(molpholin-4-yl)-propyl]-4H-[1,2,4]triazol-3-yl]-benzene-1,3-diol]	–
230 nM	16000 nM	CC(C)c1cc(-c2nnc(S(C)(=O)=O)n2C(C)C)c(O)cc1O [SFN-a21, 4-isopropyl-6-(4-isopropyl-5-methanesulfonyl-4H-[1,2,4]triazol-3-yl)-benzene-1,3-diol]	–
64 nM	12000 nM	CC(C)c1cc(-c2nnc([S+](C)[O-])n2-c2ccc(C[N+]3([O-])CCOCC3)cc2)c(O)cc1O (stereo not drawn) [SFX-a07-TF, 4-isopropyl-6-{5-methylsulfinyl-4-[4-(morpholin-4-oxid-4-ylmethyl)-phenyl]-4H-[1,2,4]triazol-3-yl}-benzene-1,3-diol trifluoroacetate]	–
1100 nM	790 nM	CC(C)c1cc(-c2n[nH]c(=O)n2N2CCCCC2)c(O)cc1O [OH-a24•TFA, 5-(2,4-dihydroxy-5-isopropyl-phenyl)-4-piperidin-1-yl-2,4-dihydro-[1,2,4]triazol-3-one]	–
220 nM	26 nM	CC(C)c1cc(-c2n[nH]c(=O)n2-c2cnc(N3CCOCC3)nc2)c(O)cc1O [OH-a17, 5-(2,4-dihydroxy-5-isopropyl-phenyl)-4-[2-(molpholin-4-yl)-pyrimidin-5-yl]-2,4-dihydro-[1,2,4]triazol-3-one]	–
190 nM	720 nM	CC(C)c1cc(-c2n[nH]c(=O)n2-c2ccc(C(=O)N3CCOCC3)cc2)c(O)cc1O [OH-a14]	–
190 nM	20 nM	CC(C)c1cc(-c2n[nH]c(=S)n2-c2ccc(N3CCOCC3)cc2)c(O)cc1O [SH-a01-TF, 4-isopropyl-6-{5-mercapto-4-[4-(morpholin-4-yl)-phenyl]-4H-[1,2,4]triazol-3-yl}-benzene-1,3-diol]	–
1300 nM	15000 nM	CC(C)c1cc(-c2nnc(S(C)(=O)=O)n2C(CO)CO)c(O)cc1O [SFN-a33, 4-[4-(2-hydroxy-1-hydroxymethyl-ethyl)-5-methanesulfonyl-4H-[1,2,4]triazol-3-yl]-6-isopropyl-benzene-1,3-diol]	–
320 nM	24000 nM	CC(C)c1cc(-c2nnc(S(C)(=O)=O)n2-c2ccc(C[N+]3([O-])CCOCC3)cc2)c(O)cc1O [SFN-a07, 4-isopropyl-6-{5-methanesulfonyl-4-[4-(morpholin-4-oxid-4-ylmethyl)-phenyl]-4H-[1,2,4]triazol-3-yl}benzene-1,3-diol]	–
200 nM	9000 nM	Cc1ccccc1-n1c(S)nnc1-c1ccc(O)cc1O [SH-b05, reference compound]	–
350 nM	390 nM	COCCn1c(-c2cc(C(C)C)c(O)cc2O)n[nH]c1=O [OH-a32, 5-(2,4-dihydroxy-5-isopropyl-phenyl)-4-(2-methoxy-ethyl)-2,4-dihydro-[1,2,4]triazol-3-one]	–
600 nM	2400 nM	COCCOCCS(=O)(=O)c1nnc(-c2cc(C(C)C)c(O)cc2O)n1-c1ccc(OC)cc1 [SFN8-a08, 4-isopropyl-6-{5-[2-(2-methoxy-ethoxy)-ethanesulfonyl]-4-(4-methoxy-phenyl)-4H-[1,2,4]triazol-3-yl}-benzene-1,3-diol]	–

Compound	IC50 [1]	IC50 ([2]; Homo sapiens, MCF7, 72 h)	IC50 [2]
4-bromo-6-{5-methylsulfanyl-4-[4-(morpholin-4-yl)-phenyl]-4H-[1,2,4]triazol-3-yl}-benzene-1,3-diol trifluoroacetate [SMe-d01-TF]	600 nM	–	5500 nM
